In ChEMBL document CHEMBL3992490, “Synthesis, spectroscopic properties and photodynamic activity of two cationic BODIPY derivatives with application in the photoinactivation of microorganisms” (Eur J Med Chem, 2017):
The source made the active and inactive calls. The rule behind the calls is not given here.

Columns and labels:
Candida albicans [1] = experiment: Anti-fungal activity against Candida albicans PC31 assessed as reduction in cell survival at 5 uM irradiated with visible light for 30 mins by UV-visible spectroscopic method; assay type: functional
Staphylococcus aureus [2] = experiment: Dark toxicity against Staphylococcus aureus ATCC 25923 assessed as cell viability at 1 uM in presence of 10 mM potassium iodide measured after 30 mins by UV-visible spectroscopic method; details: 0.5 h
[3] = In vitro photodynamic activity in DMF/5% water assessed as iodine production at 1 uM irradiated with visible light for 5 to 30 mins under aerobic condition in presence of 10 mM potassium iodide by UV-visible spectra analysis
Escherichia coli [4] = experiment: Antibacterial activity against Escherichia coli EC7 assessed as reduction in cell survival at 5 uM irradiated with visible light for 15 mins by UV-visible spectroscopic method; assay type: functional
[5] = In vitro photodynamic activity in DMF/5% water assessed as reactive oxygen species production by measuring photo-oxidation rate of L-tryptophan after irradiation by absorption spectra analysis
[6] = In vitro photodynamic activity in DMF assessed as reactive oxygen species production by measuring photo-oxidation rate of L-tryptophan after irradiation by absorption spectra analysis
Candida albicans [7] = experiment: Dark toxicity against Candida albicans PC31 assessed as cell viability at 5 uM measured after 30 mins by UV-visible spectroscopic method; details: 0.5 h
Candida albicans [8] = experiment: Dark toxicity against Candida albicans PC31 assessed as cell viability at 5 uM in presence of 10 mM potassium iodide measured after 30 mins by UV-visible spectroscopic method; details: 0.5 h
Escherichia coli [9] = experiment: Dark toxicity against Escherichia coli EC7 assessed as cell viability at 5 uM in presence of 10 mM potassium iodide measured after 30 mins by UV-visible spectroscopic method; details: 0.5 h
[10] = In vitro photodynamic activity in DMF/5% water assessed as iodine production at 1 uM under dark condition in presence of 10 mM potassium iodide by UV-visible spectra analysis
[11] = In vitro photodynamic activity in DMF/5% water assessed as reactive oxygen species production by measuring photo-oxidation rate of L-tryptophan after irradiation in presence of D-mannitol by absorption spectra analysis
Candida albicans [12] = experiment: Anti-fungal activity against Candida albicans PC31 assessed as reduction in cell survival at 5 uM irradiated with visible light for 30 mins in presence of 10 mM potassium iodide by UV-visible spectroscopic method; assay type: functional
[13] = In vitro photodynamic activity in DMF/5% water assessed as singlet oxygen production by measuring photo-oxidation rate of DPBF after irradiation by absorption spectra analysis
[14] = In vitro photodynamic activity in DMF/10% water assessed as reactive oxygen species production by measuring photo-oxidation rate of L-tryptophan after irradiation in presence of 50 mM potassium iodide by absorption spectra analysis
[15] = In vitro photodynamic activity in DMF assessed as singlet oxygen production by measuring photodegradation rate of DPBF after irradiation by absorption spectra analysis
Staphylococcus aureus [16] = experiment: Dark toxicity against Staphylococcus aureus ATCC 25923 assessed as cell viability at 1 uM measured after 30 mins by UV-visible spectroscopic method; details: 0.5 h
[17] = In vitro photodynamic activity in DMF/10% water assessed as reactive oxygen species production by measuring photo-oxidation rate of L-tryptophan after irradiation by absorption spectra analysis
Staphylococcus aureus [18] = experiment: Antibacterial activity against Staphylococcus aureus ATCC 25923 assessed as reduction in cell survival at 1 uM irradiated with visible light for 5 mins by UV-visible spectroscopic method; assay type: functional
Escherichia coli [19] = experiment: Antibacterial activity against Escherichia coli EC7 assessed as reduction in cell survival at 5 uM irradiated with visible light for 15 mins in presence of 10 mM potassium iodide by UV-visible spectroscopic method; assay type: functional
[20] = In vitro photodynamic activity in DMF/5% water assessed as singlet oxygen production by measuring photo-oxidation rate of DPBF after irradiation in presence of 50 mM potassium iodide by absorption spectra analysis
[21] = In vitro photodynamic activity in DMF/5% water assessed as singlet oxygen production by measuring photo-oxidation rate of DPBF after irradiation in presence of 10 mM potassium iodide by absorption spectra analysis
Staphylococcus aureus [22] = experiment: Antibacterial activity against Staphylococcus aureus ATCC 25923 assessed as reduction in cell survival at 1 uM irradiated with visible light for 5 mins in presence of 10 mM potassium iodide by UV-visible spectroscopic method; assay type: functional
Escherichia coli [23] = experiment: Dark toxicity against Escherichia coli EC7 assessed as cell viability at 5 uM measured after 30 mins by UV-visible spectroscopic method; details: 0.5 h
[24] = Ratio of rate constant for induction of singlet oxygen production in DMF assessed as photodegradation rate of DPBF to rate constant for induction of reactive oxygen species production in DMF assessed as photodegradation rate of L-tryptophan
[25] = In vitro photodynamic activity in DMF/5% water assessed as reactive oxygen species production by measuring photo-oxidation rate of L-tryptophan after irradiation in presence of DABCO by absorption spectra analysis
[26] = In vitro photodynamic activity in DMF/5% water assessed as iodine production at 1 uM irradiated with visible light for 5 to 30 mins under argon condition in presence of 10 mM potassium iodide by UV-visible spectra analysis
[27] = In vitro photodynamic activity in n-heptane/0.1 M AOT/water micelles assessed as singlet oxygen production by measuring photodegradation rate of DPBF after irradiation by absorption spectra analysis
[28] = In vitro photodynamic activity in DMF assessed as singlet oxygen production by measuring decrease in DPBF level after irradiation by absorption spectra analysis; details: TDE = time-dependent effect

C[N+](C)(C)CCCOc1ccc(C2=C3C=CC=[N+]3[B-](F)(F)n3cccc32)cc1
Activity (Candida albicans [1]): 0.9 deltalog10CFU/ml | Activity (Staphylococcus aureus [2]): Non-Toxic | Activity [3]: Active | Activity (Escherichia coli [4]): 2.5 deltalog10CFU/ml | K [5]: 7.86 ×10⁻⁵ /s | K [6]: 3.44 ×10⁻⁴ /s | Activity (Candida albicans [7]): Non-Toxic | Activity (Candida albicans [8]): Non-Toxic | Activity (Escherichia coli [9]): Non-Toxic | Activity [10]: inactive | K [11]: 1.56 ×10⁻⁵ /s | Activity (Candida albicans [12]): Active | K [13]: 5.81 ×10⁻⁵ /s | K [14]: 9.55 ×10⁻⁵ /s | K [15]: 4.15 ×10⁻⁵ /s | Activity (Staphylococcus aureus [16]): Non-Toxic | K [17]: 2.79 ×10⁻⁵ /s | Activity (Staphylococcus aureus [18]): >5 deltalog10CFU/ml | Activity (Escherichia coli [19]): Active | K [20]: 0.64 ×10⁻⁵ /s | K [21]: 2.79 ×10⁻⁵ /s | Activity (Staphylococcus aureus [22]): Active | Activity (Escherichia coli [23]): Non-Toxic | Ratio [24]: 8.3 | K [25]: 3 ×10⁻⁵ /s | Activity [26]: inactive | K [27]: 1.25 ×10⁻⁴ /s | Activity [28]: Tde

CC1=CC(C)=[N+]2C1=C(c1ccc([N+](C)(C)C)cc1)c1c(C)cc(C)n1[B-]2(F)F
Activity (Candida albicans [1]): 3.7 deltalog10CFU/ml | Activity (Staphylococcus aureus [2]): Non-Toxic | Activity [3]: Active | Activity (Escherichia coli [4]): 2.5 deltalog10CFU/ml | K [5]: 4.75 ×10⁻⁵ /s | K [6]: 3.06 ×10⁻⁴ /s | Activity (Candida albicans [7]): Non-Toxic | Activity (Candida albicans [8]): Non-Toxic | Activity (Escherichia coli [9]): Non-Toxic | Activity [10]: inactive | K [11]: 1.41 ×10⁻⁵ /s | Activity (Candida albicans [12]): Active | K [13]: 1.8 ×10⁻⁴ /s | K [14]: 4.42 ×10⁻⁵ /s | K [15]: 9.51 ×10⁻⁵ /s | Activity (Staphylococcus aureus [16]): Non-Toxic | K [17]: 2.13 ×10⁻⁵ /s | Activity (Staphylococcus aureus [18]): >5 deltalog10CFU/ml | Activity (Escherichia coli [19]): Active | K [20]: 1.02 ×10⁻⁴ /s | K [21]: 1.58 ×10⁻⁴ /s | Activity (Staphylococcus aureus [22]): Active | Activity (Escherichia coli [23]): Non-Toxic | Ratio [24]: 3.2 | K [25]: 2.98 ×10⁻⁵ /s | Activity [26]: inactive | K [27]: 1.95 ×10⁻⁴ /s | Activity [28]: Tde
